Like-named read-outs stand apart in the source and are kept apart here.
System: IRF3
Assay: IRF3 activation assay in THP-1 Dual cells
Format: cell-based
Details: Homo sapiens, read-out: THP1 IRF3 EC50
Method in brief: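 THP-1 Dual cells (100,000/well) were treated with serially diluted compound for 24 h at 37° C, 5% CO2. IRF3 reporter activity in supernatant was read with QUANTI-Blue as absorbance at 620-655 nm after 2 h, with untreated cells as negative control. EC50 came from fitting percent control activity against log concentration.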

| EC50 (THP-1, Table 4C) [nM] | EC50 (THP-1, Table 4A) [nM] | EC50 (THP-1, Table 4B) [nM] | SMILES |
| --- | --- | --- | --- |
| 50 to 200 |  |  | CCn1nc(C)cc1C(=O)Nc1nc2cc(C(N)=O)cc(OC(C)C)c2n1C/C=C/Cn1c2nc(-c3cc(C)nn3CC)ncc2c2cc(C(N)=O)cc(OCCCOC)c21 [Example S35, (E)-9-(4-(5-carbamoyl-2-(1-ethyl-3-methyl-1H-pyrazole-5-carboxamido)-7-isopropoxy-1H-benzo[d]imidazol-1-yl)but-2-en-1-yl)-2-(1-ethyl-3-methyl-1H-pyrazol-5-yl)-8-(3-methoxypropoxy)-9H-pyrimido[4,5-b]indole-6-carboxamide] |
| ≤ 50 | ≤ 100 | < 200 | CCCn1nc(C)cc1-c1ncc2c3cc(C(N)=O)ccc3n(C/C=C/Cn3c(NC(=O)c4cc(C)nn4CC)nc4cc(C(N)=O)cc(C)c43)c2n1 [Example S6, (E)-9-(4-(5-carbamoyl-2-(1-ethyl-3-methyl-1H-pyrazole-5-carboxamido)-7-methyl-1H-benzo[d]imidazol-1-yl)but-2-enyl)-2-(3-methyl-1-propyl-1H-pyrazol-5-yl)-9 H-pyrimido[4,5-b]indole-6-carboxamide] |
|  | ≤ 100 |  | CCn1nc(C)cc1C(=O)Nc1nc2cc(C(N)=O)cc(OC)c2n1C/C=C/Cn1c(NC(=O)c2cc(C)nn2CC)nc2cc(C(N)=O)cc(OCCCNC(=O)CCN)c21 [Example S32, (E)-7-(3-(3-aminopropanamido)propoxy)-1-(4-(5-carbamoyl-2-(1-ethyl-3-methyl-1H-pyrazole-5-carboxamido)-7-methoxy-1H-benzo[d]imidazol-1-yl)but-2-en-1-yl)-2-(1-ethyl-3-methyl-1H-pyrazole-5-carboxamido)-1H-benzo [d]imidazole-5-carboxamide] |
| ≤ 50 |  |  | CCn1nc(C)cc1C(=O)Nc1nc2cc(C(N)=O)cc(OCCCNC(=O)OCCC(=O)O)c2n1C/C=C/Cn1c2nc(-c3cc(C)nn3CC)ncc2c2cc(C(N)=O)cc(OCCCOC)c21 [Example S44, (E)-3-(((3-((5-carbamoyl-1-(4-(6-carbamoyl-2-(1-ethyl-3-methyl-1H-pyrazol-5-yl)-8-(3-methoxypropoxy)-9H-pyrimido[4,5-b]indol-9-yl)but-2-en-1-yl)-2-(1-ethyl-3-methyl-1H-pyrazole-5-carboxamido)-1H-benzo[d]imidazol-7-yl)oxy)propyl)carbamoyl)oxy)propanoic acid] |
| 50 to 200 |  |  | CCn1nc(C)cc1C(=O)Nc1nc2cc(C(N)=O)cc(OCCCOC)c2n1C/C=C/Cn1c2nc(-c3cc(C)nn3CC)ncc2c2cc(C(N)=O)cc(OCCOCCOCCOCCC(=O)O)c21 [Example S59, (E)-3-(2-(2-(2-(6-carbamoyl-9-(4-(5-carbamoyl-2-(1-ethyl-3-methyl-1H-pyrazole-5-carboxamido)-7-(3-methoxypropoxy)-1H-benzo[d]imidazol-1-yl)but-2-enyl)-2-(1-ethyl-3-methyl-1H-pyrazol-5-yl)-9H-pyrimido[4,5-b]indol-8-yloxy)ethoxy)ethoxy)ethoxy)propanoic acid] |
| 500 to 1000 | 500 to 1000 | < 1000 | CCc1nn(C)cc1-c1ncc2c3cc(C(N)=O)ccc3n(C/C=C/Cn3c(NC(=O)c4cc(C)nn4CC)nc4cc(C(N)=O)cc(C)c43)c2n1 [Example S8, (E)-9-(4-(5-carbamoyl-2-(1-ethyl-3-methyl-1H-pyrazole-5-carboxamido)-7-methyl-1H-benzo[d]imidazol-1-yl)but-2-enyl)-2-(3-ethyl-1-methyl-1H-pyrazol-4-yl)-9H-pyrimido[4,5-b]indole-6-carboxamide] |
| ≤ 50 | ≤ 100 | < 200 | CCn1nc(C)cc1C(=O)Nc1nc2cc(C(N)=O)cc(C)c2n1C/C=C/Cn1c2nc(-c3cc(C)nn3CC)ncc2c2cc(C(N)=O)cc(OCCCN3CCOCC3)c21 [Example S11, (E)-9-(4-(5-carbamoyl-2-(1-ethyl-3-methyl-1H-pyrazole-5-carboxamido)-7-methyl-1H-benzo[d]imidazol-1-yl)but-2-enyl)-2-(1-ethyl-3-methyl-1H-pyrazol-5-yl)-8-(3-morpholinopropoxy)-9H-pyrimido[4,5-b]indole-6-carboxamide] |
|  | ≤ 100 |  | CCn1nc(C)cc1-c1ncc2c3cc(C(N)=O)cc(OC)c3n(C/C=C/Cn3c4nc(-c5cc(C)nn5CC)ncc4c4cc(C(N)=O)cc(OC)c43)c2n1 [Example S29, (E)-9,9′-(but-2-ene-1,4-diyl)bis(2-(1-ethyl-3-methyl-1H-pyrazol-5-yl)-8-methoxy-9H-pyrimido[4,5-b]inclole-6-carboxamide)] |
| ≤ 50 |  |  | CCn1nc(C)cc1C(=O)Nc1nc2cc(C(N)=O)cc(OC)c2n1C/C=C/Cn1c2nc(-c3cc(C)nn3CC)ncc2c2cc(C(N)=O)cc(OCCCNC(=O)OCCC(=O)O)c21 [Example S52, (E)-3-(3-(6-carbamoyl-9-(4-(5-carbamoyl-2-(1-ethyl-3-methyl-1H-pyrazole-5-carboxamido)-7-methoxy-1H-benzo[d]imidazol-1-yl)but-2-enyl)-2-(1-ethyl-3-methyl-1H-pyrazol-5-yl)-9H-pyrimido[4,5-b]indol-8-yloxy)propylcarbamoyloxy)propanoic acid] |
| 200 to 500 | 100 to 500 | < 1000 | CCn1nc(C)cc1C(=O)Nc1nc2cc(C(N)=O)cc(C)c2n1C/C=C/Cn1c2ccccc2c2cnc(-c3cc(C)nn3CC)nc21 [Example S2, (E)-1-(4-(2-(1-ethyl-3-methyl-1H-pyrazol-5-yl)-9H-pyrimido[4,5-b]indol-9-yl)but-2-enyl)-2-(1-ethyl-3-methyl-1H-pyrazole-5-carboxamido)-7-methyl-1H-benzo[d]imidazole-5-carboxamide] |
| ≤ 50 |  |  | CCn1nc(C)cc1C(=O)Nc1nc2cc(C(N)=O)cc(OCCCNC(=O)NCC(=O)O)c2n1C/C=C/Cn1c2nc(-c3cc(C)nn3CC)ncc2c2cc(C(N)=O)cc(OCCCOC)c21 [Example S46, (E)-((3-((5-carbamoyl-1-(4-(6-carbamoyl-2-(1-ethyl-3-methyl-1H-pyrazol-5-yl)-8-(3-methoxypropoxy)-9H-pyrimido[4,5-b]indol-9-yl)but-2-en-1-yl)-2-(1-ethyl-3-methyl-1H-pyrazole-5-carboxamido)-1H-benzo[d]imidazol-7-yl)oxy)propyl)carbamoyl)glycine] |
|  | ≤ 100 |  | CCn1nc(C)cc1C(=O)Nc1nc2cc(C(N)=O)c3ccoc3c2n1C/C=C/Cn1c2nc(-c3cc(C)nn3CC)ncc2c2cc(C(N)=O)cc(OC)c21 [Example S67, (E)-1-(4-(6-carbamoyl-2-(1-ethyl-3-methyl-1H-pyrazol-5-yl)-8-methoxy-9H-pyrimido[4,5-b]indol-9-yl)but-2-en-1-yl)-2-(1-ethyl-3-methyl-1H-pyrazole-5-carboxamido)-1H-benzofuro[6,7-d]imidazole-5-carboxamide] |
|  | ≤ 100 |  | CCn1nc(C)cc1C(=O)Nc1nc2cc(C(N)=O)cc(C)c2n1C/C=C/Cn1c(NC(=O)c2cc(C)nn2CC)nc2cc(C(N)=O)c3ccoc3c21 [Example S31, (E)-1-(4-(5-carbamoyl-2-(1-ethyl-3-methyl-1H-pyrazole-5-carboxamido)-7-methyl-1H-benzo[d]imidazol-1-yl)but-2-en-1-yl)-2-(1-ethyl-3-methyl-1H-pyrazole-5-carboxamido)-1H-benzofuro[6,7-d]imidazole-5-carboxamide] |
| ≤ 50 | ≤ 100 | < 200 | CCn1nc(C)cc1C(=O)Nc1nc2cc(C(N)=O)cc(C)c2n1C/C=C/Cn1c2nc(-c3cc(C)nn3CC)ncc2c2cc(C(N)=O)cc(OCCCOC)c21 [Example S12, (E)-9-(4-(5-carbamoyl-2-(1-ethyl-3-methyl-1H-pyrazole-5-carboxamido)-7-methyl-1H-benzo[d]imidazol-1-yl)but-2-enyl)-2-(1-ethyl-3-methyl-1H-pyrazol-5-yl)-8-(3-methoxypropoxy)-9H-pyrimido[4,5-b]indole-6-carboxamide] |
| 500 to 1000 |  |  | CCn1nc(C)cc1C(=O)Nc1nc2cc(C(N)=O)cc(OCCCN)c2n1C/C=C/Cn1c2nc(-c3cc(C)nn3CC)ncc2c2cc(C(N)=O)cc(OCCCOC)c21 [Example S38, (E)-9-(4-(7-(3-aminopropoxy)-5-carbamoyl-2-(1-ethyl-3-methyl-1H-pyrazole-5-carboxamido)-1H-benzo[d]imidazol-1-yl)but-2-en-1-yl)-2-(1-ethyl-3-methyl-1H-pyrazol-5-yl)-8-(3-methoxypropoxy)-9H-pyrimido[4,5-b]indole-6-carboxamide] |
| 50 to 200 |  |  | CCn1nc(C)cc1C(=O)Nc1nc2cc(C(N)=O)cc(OCCN3CCOCC3)c2n1C/C=C/Cn1c2nc(-c3cc(C)nn3CC)ncc2c2cc(C(N)=O)cc(OCCCOC)c21 [Example S43, (E)-9-(4-(5-carbamoyl-2-(1-ethyl-3-methyl-1H-pyrazole-5-carboxamido)-7-(2-morpholinoethoxy)-1H-benzo[d]imidazol-1-yl)but-2-en-1-yl)-2-(1-ethyl-3-methyl-1H-pyrazol-5-yl)-8-(3-methoxypropoxy)-9H-pyrimido[4,5-b]indole-6-carboxamide] |
| 50 to 200 | ≤ 100 | < 1000 | CCn1nc(C)cc1C(=O)Nc1nc2cc(C(N)=O)cc(C)c2n1C/C=C/Cn1c2ccc(C(N)=O)cc2c2ccc(-c3cc(C)nn3CC)nc21 [Example S5, (E)-9-(4-(5-carbamoyl-2-(1-ethyl-3-methyl-1H-pyrazole-5-carboxamido)-7-methyl-1H-benzo[d]imidazol-1-yl)but-2-en-1-yl)-2-(1-ethyl-3-methyl-1H-pyrazol-5-yl)-9H-pyrido[2,3-b]indole-6-carboxamide] |
|  | ≤ 100 |  | CCn1nc(C)cc1C(=O)Nc1nc2cc(C(N)=O)cc(OC)c2n1C/C=C/Cn1c(NC(=O)c2cc(C)nn2CC)nc2cc(C(N)=O)cc(OCCCNC(C)=O)c21 [Example S33, (E)-7-(3-acetamidopropoxy)-1-(4-(5-carbamoyl-2-(1-ethyl-3-methyl-1H-pyrazole-5-carboxamido)-7-methoxy-1H-benzo[d]imidazol-1-yl)but-2-en-1-yl)-2-(1-ethyl-3-methyl-1H-pyrazole-5-carboxamido)-1H-benzo[d]imidazole-5-carboxamide] |

Source: patent US11596692B1 (Incyte Corporation, priority 2018, dated 2023)
